Results: ChEMBL document CHEMBL5532665 (J Med Chem, 2024)
Active and inactive are the calls of the source. The rule behind the calls is not given here.

Experiments:
Mu-type opioid receptor [1] = molecular target: T1, Mu-type opioid receptor (Homo sapiens, UniProt P35372); test: Agonist activity at human MOR expressed in CHO-K1 cells co-expressing G-alpha15 by calcium mobilization assay; assay type: functional, cell-based; conditions: cho-k1
Mu-type opioid receptor [2] = molecular target: T1, Mu-type opioid receptor; test: Agonist activity at human MOR expressed in CHO-K1 cells co-expressing G-alpha15 by calcium mobilization assay relative to control; assay type: functional, cell-based; conditions: filed as agonist
[3] = molecular target: T2, Kappa-type opioid receptor (Homo sapiens, UniProt P41145); test: Agonist activity at human KOR expressed in CHO-K1 cells co-expressing G-alpha15 by calcium mobilization assay; assay type: functional, cell-based; conditions: cho-k1
T2 sequence (P41145 whole entry): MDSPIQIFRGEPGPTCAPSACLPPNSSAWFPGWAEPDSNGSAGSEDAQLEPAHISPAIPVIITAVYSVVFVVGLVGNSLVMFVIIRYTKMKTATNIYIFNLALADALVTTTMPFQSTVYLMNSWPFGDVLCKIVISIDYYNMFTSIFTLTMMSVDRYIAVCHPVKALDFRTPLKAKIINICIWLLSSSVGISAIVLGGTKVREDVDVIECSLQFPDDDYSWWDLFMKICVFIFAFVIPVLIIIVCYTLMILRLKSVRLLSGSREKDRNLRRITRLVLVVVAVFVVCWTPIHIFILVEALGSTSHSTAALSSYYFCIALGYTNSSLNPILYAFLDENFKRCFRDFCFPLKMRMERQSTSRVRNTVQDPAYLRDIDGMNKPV

[4] = molecular target: T2, Kappa-type opioid receptor; test: Agonist activity at human KOR expressed in CHO-K1 cells co-expressing G-alpha15 by calcium mobilization assay relative to control; assay type: functional, cell-based; conditions: filed as agonist
[5] = molecular target: T3, Delta-type opioid receptor (Homo sapiens, UniProt P41143); test: Agonist activity at human DOR expressed in CHO-K1 cells co-expressing G-alpha15 by calcium mobilization assay; assay type: functional, cell-based; conditions: cho-k1
T3 sequence (P41143 whole entry): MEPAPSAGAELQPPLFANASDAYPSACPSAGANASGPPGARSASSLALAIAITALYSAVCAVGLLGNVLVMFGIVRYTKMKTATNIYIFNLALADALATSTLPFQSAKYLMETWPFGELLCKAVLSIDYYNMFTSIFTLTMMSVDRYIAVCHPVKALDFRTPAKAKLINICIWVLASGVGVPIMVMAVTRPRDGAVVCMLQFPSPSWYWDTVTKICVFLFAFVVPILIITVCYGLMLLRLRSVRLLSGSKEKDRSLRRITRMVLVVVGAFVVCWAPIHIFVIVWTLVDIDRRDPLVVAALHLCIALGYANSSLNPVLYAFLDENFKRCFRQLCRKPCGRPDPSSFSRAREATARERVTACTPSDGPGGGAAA

[6] = molecular target: T3, Delta-type opioid receptor; test: Agonist activity at human DOR expressed in CHO-K1 cells co-expressing G-alpha15 by calcium mobilization assay relative to control; assay type: functional, cell-based; conditions: filed as agonist
Mus musculus [7] = test: Antinociceptive activity in Kunming mouse model assessed as latency of tail withdrawal at 13.9 nmol/kg, sc measured for 10 mins by tail-flick test relative to control; assay type: functional
Mus musculus [8] = test: Antinociceptive activity in Kunming mouse model assessed as latency of tail withdrawal at 13.9 nmol/kg, sc measured for 30 mins by tail-flick test relative to control; assay type: functional; conditions: 0.5 h
Mus musculus [9] = test: Antinociceptive activity in Kunming mouse model assessed as latency of tail withdrawal at 13.9 nmol/kg, sc measured for 60 mins by tail-flick test relative to control; assay type: functional; conditions: 1 h
Mus musculus [10] = test: Antinociceptive activity in Kunming mouse model assessed as latency of tail withdrawal at 13.9 nmol/kg, sc measured for 120 mins by tail-flick test relative to control; assay type: functional; conditions: 2 h
[11] = Stability in mouse plasma assessed as half life at 0.01 mol/L measured for 72 hrs by RP-HPLC analysis; assay type: ADME, cell-free
Mus musculus [12] = test: Antinociceptive activity in Kunming mouse model at 13.9 nmol/kg, sc in presence of beta-FNA by tail-flick test; assay type: functional, organism-based
Mus musculus [13] = test: Antinociceptive activity in Kunming mouse model at 13.9 nmol/kg, sc in presence of nor-BNI by tail-flick test; assay type: functional, organism-based
Mus musculus [14] = test: Antinociceptive activity in Kunming mouse model at 13.9 nmol/kg, sc in presence of NTI by tail-flick test; assay type: functional, organism-based
Mus musculus [15] = test: Antinociceptive activity in Kunming mouse model at 13.9 nmol/kg, sc pretreated with NALM subcutaneously followed by compound administration by tail-flick test; assay type: functional, organism-based
Mus musculus [16] = test: Antinociceptive activity in Kunming mouse model at 13.9 nmol/kg, sc pretreated with NALM intracerebroventricularly followed by compound administration by tail-flick test; assay type: functional, organism-based
Mus musculus [17] = test: Antinociceptive activity in Kunming mouse model assessed as increase in analgesic effect at 0.14 to 13.9 nmol/kg, sc measured for 180 to 360 mins by tail-flick test; assay type: functional, organism-based; conditions: dose 0.14-13.9 nmol/kg, time 180-360 min
Mus musculus [18] = test: Antinociceptive activity in Kunming mouse model administered subcutaneously by tail-flick test; assay type: functional; conditions: route sc
Mus musculus [19] = test: Antinociceptive activity in Kunming mouse model administered subcutaneously measured for 5 to 15 mins by acetic acid-induced writhing test; assay type: functional; conditions: route sc, time 5-15 min
Mus musculus [20] = test: Rewarding affect in Kunming mouse model at 139 nmol/kg, sc pre-exposed to place conditioning for 3 days followed by compound administration and further re-exposed to place conditioning measured on day 5 by unbiased CPP method; assay type: functional, organism-based; conditions: time 2.0 day
Mus musculus [21] = test: Induction of physical dependence in Kunming mouse model assessed as jumping behavior at 5.5 to 275 nmol/kg, sc administered as 7 escalating doses with 8 hr-intervals in-between followed by Nal administration post-2 hrs of last compound dose and further measured for 30 mins by withdrawal assay; assay type: functional, organism-based; conditions: dose 5.5-275 nmol/kg, time 50.5 hrs
Mus musculus [22] = test: Antinociceptive activity in Kunming mouse model at 136.2 nmol/kg, sc in presence of beta-FNA by tail-flick test; assay type: functional, organism-based
Mus musculus [23] = test: Antinociceptive activity in Kunming mouse model at 136.2 nmol/kg, sc in presence of nor-BNI by tail-flick test; assay type: functional, organism-based
Mus musculus [24] = test: Antinociceptive activity in Kunming mouse model at 136.2 nmol/kg, sc in presence of NTI by tail-flick test; assay type: functional, organism-based
Mus musculus [25] = test: Antinociceptive activity in Kunming mouse model at 136.2 nmol/kg, sc pretreated with NALM subcutaneously followed by compound administration by tail-flick test; assay type: functional, organism-based
Mus musculus [26] = test: Antinociceptive activity in Kunming mouse model at 136.2 nmol/kg, sc pretreated with NALM intracerebroventricularly followed by compound administration by tail-flick test; assay type: functional, organism-based
[27] = molecular target: T2, Kappa-type opioid receptor; test: Agonist activity at human KOR expressed in CHO-K1 cells co-expressing G-alpha15 upto 100 uM by calcium mobilization assay; assay type: functional, cell-based
Mus musculus [28] = test: Antinociceptive activity in Kunming mouse model at 132.2 nmol/kg, sc in presence of beta-FNA by tail-flick test; assay type: functional, organism-based
Mus musculus [29] = test: Antinociceptive activity in Kunming mouse model at 132.2 nmol/kg, sc in presence of nor-BNI by tail-flick test; assay type: functional, organism-based
Mus musculus [30] = test: Antinociceptive activity in Kunming mouse model at 132.2 nmol/kg, sc in presence of NTI by tail-flick test; assay type: functional, organism-based
Mus musculus [31] = test: Antinociceptive activity in Kunming mouse model at 132.2 nmol/kg, sc pretreated with NALM subcutaneously followed by compound administration by tail-flick test; assay type: functional, organism-based
Mus musculus [32] = test: Antinociceptive activity in Kunming mouse model at 132.2 nmol/kg, sc pretreated with NALM intracerebroventricularly followed by compound administration by tail-flick test; assay type: functional, organism-based
Mus musculus [33] = test: Antinociceptive activity in Kunming mouse model assessed as latency of tail withdrawal at 1362 nmol/kg, sc measured for 10 mins by tail-flick test relative to control; assay type: functional
Mus musculus [34] = test: Antinociceptive activity in Kunming mouse model assessed as latency of tail withdrawal at 1362 nmol/kg, sc measured for 30 mins by tail-flick test relative to control; assay type: functional; conditions: 0.5 h
Mus musculus [35] = test: Antinociceptive activity in Kunming mouse model assessed as latency of tail withdrawal at 1362 nmol/kg, sc measured for 60 mins by tail-flick test relative to control; assay type: functional; conditions: 1 h
Mus musculus [36] = test: Antinociceptive activity in Kunming mouse model assessed as latency of tail withdrawal at 1362 nmol/kg, sc measured for 120 mins by tail-flick test relative to control; assay type: functional; conditions: 2 h

T1 sequence (P35372 whole entry): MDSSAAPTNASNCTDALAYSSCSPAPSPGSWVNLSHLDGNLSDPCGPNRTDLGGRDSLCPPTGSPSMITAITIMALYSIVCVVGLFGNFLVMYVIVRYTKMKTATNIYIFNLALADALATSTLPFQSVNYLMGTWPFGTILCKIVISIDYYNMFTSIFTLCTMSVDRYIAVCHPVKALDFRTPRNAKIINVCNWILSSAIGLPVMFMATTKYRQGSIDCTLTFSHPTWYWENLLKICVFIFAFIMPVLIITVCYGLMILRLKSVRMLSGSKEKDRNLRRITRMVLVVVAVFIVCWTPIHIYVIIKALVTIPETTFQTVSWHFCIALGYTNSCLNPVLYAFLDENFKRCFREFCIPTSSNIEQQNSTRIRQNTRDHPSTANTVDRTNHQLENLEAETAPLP

**Q.** With NC(=O)[C@@H]1CCCCN1C(=O)[C@H]1CC(=O)NCCCC[C@@H](NC(=O)[C@@H](N)Cc2ccc(O)cc2)C(=O)NCC(=O)N[C@@H](Cc2ccccc2)C(=O)N1 as the compound, how does the EC50 (Mu-type opioid receptor [1]) read?
**A.** 0.9 nM

**Q.** And the Emax (Mu-type opioid receptor [2])?
**A.** 107%

**Q.** What about the EC50 [3] of the same compound?
**A.** 214 nM

**Q.** And the Emax [4]?
**A.** 99.5%

**Q.** What about the EC50 [5] of the same compound?
**A.** 0.2 nM

**Q.** And the Emax [6]?
**A.** 101%

**Q.** And the MPE (Mus musculus [7])?
**A.** 73.1%

**Q.** What about the MPE (Mus musculus [8]) of the same compound?
**A.** 91.2%

**Q.** And the MPE (Mus musculus [9])?
**A.** 86.9%

**Q.** And the MPE (Mus musculus [10])?
**A.** 56.6%

**Q.** What about the half-life at 0.01 mol/L [11] of the same compound?
**A.** 18.5 days

**Q.** What about the Activity (Mus musculus [12]) of the same compound?
**A.** inactive

**Q.** And the Activity (Mus musculus [13])?
**A.** inactive

**Q.** What about the Activity (Mus musculus [14]) of the same compound?
**A.** Active

**Q.** What about the Activity (Mus musculus [15]) of the same compound?
**A.** Active

**Q.** And the Activity (Mus musculus [16])?
**A.** inactive

**Q.** And the Activity (Mus musculus [17])?
**A.** Active

**Q.** What about the ED50 (Mus musculus [18]) of the same compound?
**A.** 0.0007 µmol/kg

**Q.** And the ED50 (Mus musculus [19])?
**A.** 0.0055 µmol/kg

**Q.** And the Activity (Mus musculus [20])?
**A.** inactive

**Q.** What about the Activity (Mus musculus [21]) of the same compound?
**A.** inactive

**Q.** Which results are given for CC1(C)NC(=O)[C@H](NC(=O)[C@@H](N)Cc2ccc(O)cc2)CCCCNC(=O)C[C@H](C(=O)N2CCC[C@H]2C(N)=O)NC(=O)[C@H](Cc2ccccc2)NC1=O?
**A.** Emax (Mu-type opioid receptor [2]): 100%; Emax [4]: 89.2%; Emax [6]: 103%; Activity (Mus musculus [22]): inactive; Activity (Mus musculus [23]): inactive; Activity (Mus musculus [24]): Active; Activity (Mus musculus [25]): inactive; Activity (Mus musculus [26]): Active

**Q.** For NC(=O)[C@@H]1CCCN1C(=O)[C@H]1CC(=O)NCCCC[C@@H](NC(=O)[C@@H](N)Cc2ccc(O)cc2)C(=O)NCC(=O)N[C@@H](Cc2ccc3ccccc3c2)C(=O)N1, which Activity [27] is on record?
**A.** inactive

**Q.** And the Emax (Mu-type opioid receptor [2])?
**A.** 98.6%

**Q.** And the Emax [6]?
**A.** 110%

**Q.** What about the Activity (Mus musculus [28]) of the same compound?
**A.** inactive

**Q.** What about the Activity (Mus musculus [29]) of the same compound?
**A.** Active

**Q.** And the Activity (Mus musculus [30])?
**A.** Active

**Q.** What about the Activity (Mus musculus [31]) of the same compound?
**A.** inactive

**Q.** What about the Activity (Mus musculus [32]) of the same compound?
**A.** Active

**Q.** With Cc1cc(O)cc(C)c1C[C@H](N)C(=O)N[C@@H]1CCCCNC(=O)C[C@@H](C(=O)N2CCC[C@@H]2C(N)=O)NC(=O)[C@H](Cc2ccccc2)NC(=O)CNC1=O as the compound, how does the MPE (Mus musculus [33]) read?
**A.** 75%

**Q.** What about the MPE (Mus musculus [34]) of the same compound?
**A.** 90.5%

**Q.** And the MPE (Mus musculus [35])?
**A.** 73.4%

**Q.** And the MPE (Mus musculus [36])?
**A.** 44.5%
